Measurements reported in US10081609B2, “Compounds for inducing proliferation and differentiation of cells, and methods of use thereof” (The Broad Institute, Inc., priority 2013, dated 2018).

Columns and labels:
[1] = system: human primary hepatocytes; experiment: High-throughput liver platform, primary screening: hepatocyte proliferation by automated high-content imaging (hepatocyte nuclei numbers); assay type: cell-based; conditions: primary screening
Experimental: In order to avoid species-specific differences and cell line mutations, the screen was conducted with human primary hepatocytes. Traditionally, chemical screening on such cells has been hindered by their availability in large quantities as well as their rapid loss of viability and phenotype in vitro. Recent advances in cryopreservation technologies allowed enough primary human cells to be stored for screening; these cells are maintained through co-cultivation with non-parenchymal cells. Co-cultures of primary human hepatocytes with murine embryonic J2-3T3 fibroblasts were recently shown to maintain normal hepatocyte phenotype for weeks. These in vitro platforms consisted of hepatocytes surrounded by a co-planar population of fibroblasts. While sufficient for stabilizing hepatocyte functions in vitro, such platforms may limit normal hepatocyte expansion due to contact inhibition. Thus, for this screen, a sparse population of hepatocytes was co-cultivated on top of a confluent feeder layer of J2-3T3 fibroblasts within 384-well plates (FIG. 1A top). This screening platform stabilized hepatocyte phenotypic functions in vitro (FIG. 1A bottom) and was compatible with two separate high-throughput readouts developed for this screen.
The primary readout detected hepatocyte proliferation via automated high-content imaging. This assay quantified hepatocyte nuclei numbers, using nuclear morphologies to separate the hepatocyte and fibroblast subpopulations that co-exist within the screening platform. When visualized with Hoechst stain, hepatocyte nuclei were smaller and more uniform in texture while fibroblast nuclei were larger and punctated (FIG. 1A bottom). Leveraging this distinction, automated image analyses was developed that utilized machine learning algorithms to classify nuclei types and tabulate hepatocyte nuclei numbers. […] Besides quantifying hepatocyte nuclei that have completed mitosis, the number of nuclei in the process of mitosis were also quantified. Two additional analysis pipelines were built to detect nuclear morphologies consistent with cells undergoing metaphase and anaphase.
FIG. 1B top summarizes the workflow of the screen. Primary screening was done on human primary hepatocytes, preconditioned for seven days by non-parenchymal cells in the screening platform. Upon stabilization in vitro, cultures were treated with the chemical library for 48 hours. All compounds were tested in duplicates, at a single concentration of 15 μM. This single concentration was selected via a pilot screen of ˜2,000 small molecules. All 12,480 small molecules were initially tested on a single donor of cryopreserved hepatocytes (donor a) in order to eliminate noise from donor-to-donor variability. Following compound treatment, media supernatants were collected for functional analyses via ELISA and cultures were fixed in 4% paraformaldehyde for proliferation analyses via imaging.
To identify proliferation hits, three image-based readouts—one each to quantify the number of (1) hepatocyte nuclei in interphase, (2) nuclei in metaphase and (3) nuclei in anaphase—were integrated. z Scores were converted into p values, which were then used to generate ranked lists of compounds based on the efficacy and consistency of effects across the different proliferation readouts. Efficacy was assessed by the product of p values (pprod=pinter×pmeta×pana); consistency was evaluated by the maximum of p values (pmax=max(pinter, pmeta, pana). Compounds were considered proliferation hits if pprod<1×10^−6 and pmax<0.25. Functional hits were selected by an ELISA […]. Compounds with ELISA z>3.0 were eliminated as toxic. 93 compounds met all hit selection criteria, qualifying as Functional Proliferation Hits (FPH); FIG. 1B bottom illustrates the types of compounds that constituted this set of hits.

[2] = system: primary human hepatocytes; experiment: Expansion of primary human hepatocytes from six additional cell sources (Ki67/albumin staining, FACS); assay type: cell-based
Experimental: On day seven, the number of hepatocytes was quantified by FACS analysis (FIG. 6B). Day one untreated controls was added to the bar graph for reference.

number of hepatocytes by FACS ([2]; day seven, all donors): increase
Ki67 staining co-localized with albumin labeled hepatocytes ([2]; six additional cell sources, six days in culture): increased
SMILES: Cc1ccc(Cl)cc1N(CC(=O)Nc1c(F)cccc1F)S(C)(=O)=O [FPH2, 2-(N-(5-chloro-2-methylphenyl)methylsulfonamido)-N-(2,6-difluorophenyl)acetamide]
number of nuclei undergoing mitosis [1]: elevated
increase in hepatocyte nuclei numbers during primary screening ([1]; 15 μM, 48 hours): 1.5 ×
